Patent US5621000A, “Nitric esters having a pharmacological activity and process for their preparation” (priority 1992, dated 1997)
Where two headings read alike, the source gives them in different places.

Experiments:
[1] = system: prostaglandin E2 synthesis (gastric); assay: Gastric prostaglandin synthesis; assay type: in vivo; details: for inhibition of gastric prostaglandin E2 synthesis: at the highest dose (5-20 mg/kg p.o.)
[2] = system: plasma nitrate/nitrite levels; assay: NO release: plasma nitrate/nitrite levels; assay type: in vivo; details: for increase of plasma nitrate/nitrite levels: one hour after the administration; for effect on plasma nitrate/nitrite levels: reference compounds
[3] = system: carrageenan paw edema; assay: Carrageenan paw edema, anti-inflammatory activity; assay type: in vivo, Wistar rats; details: for efficacy in rat carrageenan paw edema vs reference drugs: p.o., compared with Ketoprofen and Flurbiprofen; for ANTI-INFLAM. ACTIVITY (power ratio relative to the corresponding acid): carrageenan paw edema, Wistar rats, mean of 10 animals
Description: (§1) The anti-inflammatory and anti-platelet aggregation activity as well as the gastrointestinal ulcerogenicity, for instance of nitric esters having the following formulae, were tested by means of biological studies: [drawing 16]
The anti-inflammatory activity of said nitric esters was determined in Wistar rats utilizing the method of the carrageenan paw edema, as reported in C. A. WINTER, E. RISLEY, G. W. NUSS, Proc. Soc. Exp. Biol. Med. 111,544 (1962), while the anti-platelet aggregation activity of said derivatives was determined on human platelets stimulated by arachidonic acid, according to the method described by V. BERTELE et al., Science 220,517 (1983).
(§2) The anti-inflammatory and anti-platelet aggregation activity as well as the gastrointestinal ulcerability activity of said derivatives are given on Table 1, and are expressed, for each nitric ester indicated, as the power ratio relative to the corresponding acids non functionalized according to the general formula (I), according to this invention. Each value represents the mean of the values obtained by the treatment of 10 animals.

[4] = system: phenylquinone writhing; assay: Mouse phenylquinone writhing; assay type: in vivo; details: 3 to 10 mg/kg p.o.
[5] = in vivo; assay type: in vivo; details: in vivo, read-out: maximum tolerated dose: highest oral dose without apparent symptoms
[6] = system: non rodents; assay: in vivo; assay type: in vivo; details: for tolerability in non rodents: increasing oral doses up to 30 mg/kg, preliminary; for mortality in non rodents: 10 mg/kg, reference compounds
[7] = system: central nervous, autonomic, cardiovascular, respiratory and gastrointestinal systems; assay: General (secondary) pharmacology; assay type: in vivo; details: in comparison with Ketoprofen or Flurbiprofen
[8] = system: prostaglandin E2 in exudate; assay: Prostaglandin synthesis in the inflammatory exudate (carrageenan sponge); assay type: in vivo; details: for inhibition at 20 mg/kg: po, read-out: inhibition of the formation of prostaglandin E2 in exudate
From the text: PROSTAGLANDIN SYNTHESIS IN THE INFLAMMATORY EXUDATE.
Subcutaneous implantation of carrageenan sponge elicits the infiltration of inflammatory cells, as reported in Nature 284, 271 (1980). […]

[9] = system: leukocyte adherence to mesenteric post-capillary venules; assay: Gastric leukocyte adherence/vessel diameter (intravital microscopy); assay type: in vivo; details: for blood pressure: one hour period after administration
From the text: GASTRIC LEUKOCYTE ADHERENCE/VESSEL DIAMETER. […] J. Physiol.

[10] = system: adjuvant arthritis; assay: Rat adjuvant arthritis; assay type: in vivo; details: 3 mg/kg p.o., 19 consecutive days (days 3 through 21 after adjuvant injection), compared to controls
[11] = Rat gastric mucosa injury; details: po
[12] = system: human platelets; assay: Anti-platelet aggregation activity on platelets stimulated by arachidonic acid; assay type: cell-based
Description: as §1
The anti-inflammatory activity of said nitric esters was determined in Wistar rats utilizing the method of the carrageenan paw edema, as reported in C. A. WINTER, E. RISLEY, G. W. NUSS, Proc. Soc.
as §2

[13] = system: collagen-induced platelet aggregation; assay: In vivo platelet aggregation, collagen-induced; details: 20 mg/kg p.o. in the rat; for inhibition at 20 mg/kg: Platelet, po, versus controls
From the text: IN VIVO PLATELET AGGREGATION.

[14] = system: mouse; assay: Preliminary acute toxicity in the mouse by two administration routes; assay type: in vivo; details: oral or intraperitoneal doses of 300 mg/kg
[15] = system: gastrointestinal ulcerogenicity; assay: Gastrointestinal ulcerability after oral administration; assay type: in vivo, rat
Description: as §1
The gastrointestinal ulcerability was evaluated by oral administration in the rat.
as §2

[16] = system: gastric mucosa; assay: Rat gastric mucosa injury
[17] = system: gastric mucosa; details: rat, in vivo, po
[18] = prior to and during one hour after administration, intravital microscopy
[19] = oral administration in the rat, ratio to corresponding acid, mean of 10 animals

SMILES: CC(C(=O)OCCCCO[N+](=O)[O-])c1ccc(-c2ccccc2)c(F)c1 (stereo not drawn) [(XII), nitric ester of 2-fluoro-alpha-methyl-4-diphenyl acetate of 4-hydroxybutyl]
- inhibition of gastric prostaglandin E2 synthesis [1]: more than 90%
- increase of plasma nitrate/nitrite levels [2]: more than 50%
- efficacy in rat carrageenan paw edema vs reference drugs [3]: efficacy comparable with the corresponding reference drugs
- efficacy in phenylquinone writhing [4]: fully effective
- MTD ([5]; oral, non rodents, increasing doses up to 30 mg/kg, preliminary): ≥ 30 mg/kg
- tolerability in non rodents [6]: very well tolerated
- additional adverse reactions (secondary pharmacological evaluation) [7]: No relevant additional adverse reactions were observed
- inhibition at 20 mg/kg [8]: > 75%
- blood pressure [9]: No changes in blood pressure were observed
- diameter of vessels [9, 18]: increasing the diameter of vessels significantly
- leukocyte adherence to post-capillary venules [9, 18]: did not induce significant leukocyte adherence
- reduction in the arthritic symptomatology [10]: significant and comparative reduction in the arthritic symptomatology
- NOAEL ([11]; in vivo): ≥ 30 mg/kg

SMILES: CC(C(=O)OCCCCO[N+](=O)[O-])c1cccc(C(=O)c2ccccc2)c1 (stereo not shown) [(XVIII), nitric ester of 2-(3-benzoilphenyl)propionate of 4-hydroxybutyl]
- inhibition of gastric prostaglandin E2 synthesis relative to reference compounds ([1]; 5-20 mg/kg p.o., vs Ketoprofen and Flurbiprofen): inhibited significantly and comparatively to the corresponding reference compounds
- inhibition of gastric prostaglandin E2 synthesis [1]: more than 90%
- increase of plasma nitrate/nitrite levels [2]: more than 50%
- ANTI-INFLAM. ACTIVITY (power ratio relative to the corresponding acid) [3]: 1,25
- efficacy in rat carrageenan paw edema vs reference drugs [3]: efficacy comparable with the corresponding reference drugs
- ANTI-AGGREG. ACTIVITY (power ratio relative to the corresponding acid) [12]: 1,35
- efficaciousness in phenylquinone writhing relative to reference compounds [4]: almost comparable with that of the corresponding reference compounds
- efficacy in phenylquinone writhing [4]: fully effective
- inhibition of platelet aggregation, comparison with Flurbiprofen [13]: significantly more effective than the latter
- inhibition at 20 mg/kg [13]: 66%
- MTD ([5]; po): ≥ 30 mg/kg
- tolerability in non rodents [6]: very well tolerated
- additional adverse reactions (secondary pharmacological evaluation) [7]: No relevant additional adverse reactions were observed
- efficacy on exudate prostaglandin E2 relative to reference compounds ([8]; 20 mg/kg p.o., vs Ketoprofen and Flurbiprofen): comparative efficacy to the corresponding reference compounds
- inhibition at 20 mg/kg ([8]; 20 mg/kg p.o., compared with controls): > 75%
- blood pressure [9]: No changes in blood pressure were observed
- diameter of vessels [9, 18]: increasing the diameter of vessels significantly
- leukocyte adherence to post-capillary venules [9, 18]: did not induce significant leukocyte adherence
- reduction in the arthritic symptomatology [10]: significant and comparative reduction in the arthritic symptomatology
- acute toxicity [14]: No evident toxicity was observed
- GASTRO-INTESTINAL ULCERABILITY (power ratio relative to the corresponding acid) [15, 19]: 0,20
- NOAEL ([11]; gastric mucosa): ≥ 30 mg/kg
- gastric tolerability relative to reference compounds ([16]; 3 to 30 mg/kg p.o.): significantly better tolerated than reference compounds

SMILES: CC(C(=O)OCCCCO[N+](=O)[O-])c1ccc(C(=O)c2cccs2)cc1 (stereo not shown) [(XXIV)]
- ANTI-INFLAM. ACTIVITY (power ratio relative to the corresponding acid) [3]: 1,20
- ANTI-AGGREG. ACTIVITY (power ratio relative to the corresponding acid) [12]: 1,30
- GASTRO-INTESTINAL ULCERABILITY (power ratio relative to the corresponding acid) [15, 19]: 0,35

SMILES: CCC(C(=O)OCCCCO[N+](=O)[O-])c1ccc(N2Cc3ccccc3C2=O)cc1 (stereo not shown) [(XXV)]
- ANTI-INFLAM. ACTIVITY (power ratio relative to the corresponding acid) [3]: 1,05
- ANTI-AGGREG. ACTIVITY (power ratio relative to the corresponding acid) [12]: 1,25
- GASTRO-INTESTINAL ULCERABILITY (power ratio relative to the corresponding acid) [15, 19]: 0,30

SMILES: CCc1cccc2c3c([nH]c12)C(CC)(CC(=O)OCCCCO[N+](=O)[O-])OCC3 (stereo not shown) [(XXVI)]
- ANTI-INFLAM. ACTIVITY (power ratio relative to the corresponding acid) [3]: 1,40
- ANTI-AGGREG. ACTIVITY (power ratio relative to the corresponding acid) [12]: 1,10
- GASTRO-INTESTINAL ULCERABILITY (power ratio relative to the corresponding acid) [15, 19]: 0,33

SMILES: CC(C(=O)O)c1ccc(-c2ccccc2)c(F)c1 (stereo not shown) [Flurbiprofen, reference compound]
- effect on plasma nitrate/nitrite levels [2]: did not affect plasma nitrate/nitrite levels significantly
- inhibition at 20 mg/kg [13]: 40%
- mortality in non rodents [6]: caused the death of the animals
- leukocyte adherence to post-capillary venules ([9]; in vivo): Unlike Ketoprofen or Flurbiprofen, (XVIII) or (XII) did not induce significant leukocyte adherence
- dose causing the onset of gastric damages [17]: ≤ 3 mg/kg

SMILES: CCC(C(=O)O)c1ccc(N2Cc3ccccc3C2=O)cc1 (stereo not shown) [Indobufen, reference compound]
- ANTI-INFLAM. ACTIVITY (power ratio relative to the corresponding acid) [3]: 1
- ANTI-AGGREG. ACTIVITY (power ratio relative to the corresponding acid) [12]: 1
- GASTRO-INTESTINAL ULCERABILITY (power ratio relative to the corresponding acid) [15, 19]: 1

SMILES: CC(C(=O)O)c1cccc(C(=O)c2ccccc2)c1 (stereo not shown) [Ketoprofen, 2-(3-benzoylphenyl)propionic acid, reference compound]
- effect on plasma nitrate/nitrite levels [2]: did not affect plasma nitrate/nitrite levels significantly
- mortality in non rodents [6]: caused the death of the animals
- leukocyte adherence to post-capillary venules [9, 18]: Unlike Ketoprofen or Flurbiprofen, (XVIII) or (XII) did not induce significant leukocyte adherence
- severity of gastric damages ([16]; 3 to 30 mg/kg p.o.): dose-dependent
- dose causing the onset of gastric damages ([16]; p.o.): ≤ 3 mg/kg

SMILES: CC(C(=O)O)c1ccc(C(=O)c2cccs2)cc1 (stereo not shown) [Suprofen, reference compound]
- ANTI-INFLAM. ACTIVITY (power ratio relative to the corresponding acid) [3]: 1
- ANTI-AGGREG. ACTIVITY (power ratio relative to the corresponding acid) [12]: 1
- GASTRO-INTESTINAL ULCERABILITY (power ratio relative to the corresponding acid) ([15]; rat, in vivo, po): 1
